Test results from ChEMBL document CHEMBL2062370, “Identification of glycogen synthase kinase-3 inhibitors with a selective sting for glycogen synthase kinase-3α” (J Med Chem, 2012).

What was measured:
[1] = species: Danio rerio; assay: Toxicity in wild type zebrafish embryo assessed as mortality up to 30 uM treated 5 hrs after post fertilization measured 5 days after post fertilization by microscopy; format: organism-based; settings: in vivo, 120 h
[2] = target: Glycogen synthase kinase-3 alpha (Homo sapiens, UniProt P49840); assay: Inhibition of human recombinant GSK3alpha
[3] = target: Glycogen synthase kinase-3 beta (Homo sapiens, UniProt P49841); assay: Inhibition of human recombinant GSK3beta
[4] = Aqueous solubility of the compound at 200 uM at pH 7.4 in phosphate buffer saline after 24 hrs by HPLC-UV/VIS spectroscopic analysis; format: physicochemical; settings: pH 7.4, 24 h
[5] = Octanol-phosphate buffer partition coefficient, log D of the compound at 100 uM at pH 7.4 after 60 mins by HPLC-UV/VIS spectroscopic analysis; format: physicochemical
[6] = tested on: Liver microsomes; assay: Metabolic stability in human liver microsomes after 60 mins by HPLC MS/ Mass spectroscopic analysis; format: ADME, Microsome; settings: 1 h
[7] = tested on: Caco-2; assay: Permeability from apical to basolateral side of human Caco2 cells at pH 6.5/7.4 after 60 mins by HPLC MS/ Mass spectroscopic analysis; format: ADME, cell-based; settings: caco-2, pH 6.5, 1 h
[8] = target: Protein kinase C alpha type (Homo sapiens, UniProt P17252); assay: Inhibition of human recombinant PKCalpha by FRET assay
[9] = target: T1, Aurora kinase A (Homo sapiens, UniProt O14965); assay: Inhibition of human recombinant AurKA by FRET assay
T1 sequence (O14965 whole entry): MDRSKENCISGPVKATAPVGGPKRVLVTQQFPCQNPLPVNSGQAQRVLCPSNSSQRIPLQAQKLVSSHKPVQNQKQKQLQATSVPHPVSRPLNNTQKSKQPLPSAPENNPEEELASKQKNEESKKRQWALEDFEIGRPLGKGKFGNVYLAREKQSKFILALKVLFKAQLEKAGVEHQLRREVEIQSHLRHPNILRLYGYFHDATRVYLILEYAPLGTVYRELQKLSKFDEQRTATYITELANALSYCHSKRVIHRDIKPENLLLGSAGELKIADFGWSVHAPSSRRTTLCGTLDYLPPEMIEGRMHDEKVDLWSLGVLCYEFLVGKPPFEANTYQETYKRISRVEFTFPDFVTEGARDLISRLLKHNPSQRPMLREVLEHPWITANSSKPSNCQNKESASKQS

[10] = target: Casein kinase I isoform epsilon (Homo sapiens, UniProt P49674); assay: Inhibition of human recombinant CK1epsilon by FRET assay
[11] = target: Cyclin-dependent kinase 5/CDK5 activator 1 (Homo sapiens, UniProt Q00535); assay: Inhibition of human recombinant CDK5/p35 by FRET assay; format: protein-complex assay
Chain of Cyclin-dependent kinase 5/CDK5 activator 1 (Q00535 whole entry): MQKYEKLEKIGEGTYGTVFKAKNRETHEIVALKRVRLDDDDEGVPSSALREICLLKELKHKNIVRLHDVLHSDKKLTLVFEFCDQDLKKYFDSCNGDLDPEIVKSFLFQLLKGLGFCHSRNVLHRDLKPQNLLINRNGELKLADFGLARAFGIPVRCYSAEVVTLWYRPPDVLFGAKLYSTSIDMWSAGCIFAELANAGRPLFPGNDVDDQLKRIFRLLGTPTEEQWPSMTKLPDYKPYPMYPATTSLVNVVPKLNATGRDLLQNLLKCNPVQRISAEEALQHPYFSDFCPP
Chain of Cyclin-dependent kinase 5/CDK5 activator 1 (Q15078 whole entry, further chain): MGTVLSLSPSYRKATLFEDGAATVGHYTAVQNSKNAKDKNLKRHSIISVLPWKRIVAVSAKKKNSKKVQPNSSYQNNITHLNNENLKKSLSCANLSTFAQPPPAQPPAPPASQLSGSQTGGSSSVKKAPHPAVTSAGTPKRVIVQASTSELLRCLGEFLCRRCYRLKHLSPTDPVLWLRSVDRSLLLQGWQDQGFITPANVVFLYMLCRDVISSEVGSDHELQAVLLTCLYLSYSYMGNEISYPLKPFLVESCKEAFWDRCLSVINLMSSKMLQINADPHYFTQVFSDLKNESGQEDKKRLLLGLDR

Chain of Glycogen synthase kinase-3 beta (P49841 whole entry): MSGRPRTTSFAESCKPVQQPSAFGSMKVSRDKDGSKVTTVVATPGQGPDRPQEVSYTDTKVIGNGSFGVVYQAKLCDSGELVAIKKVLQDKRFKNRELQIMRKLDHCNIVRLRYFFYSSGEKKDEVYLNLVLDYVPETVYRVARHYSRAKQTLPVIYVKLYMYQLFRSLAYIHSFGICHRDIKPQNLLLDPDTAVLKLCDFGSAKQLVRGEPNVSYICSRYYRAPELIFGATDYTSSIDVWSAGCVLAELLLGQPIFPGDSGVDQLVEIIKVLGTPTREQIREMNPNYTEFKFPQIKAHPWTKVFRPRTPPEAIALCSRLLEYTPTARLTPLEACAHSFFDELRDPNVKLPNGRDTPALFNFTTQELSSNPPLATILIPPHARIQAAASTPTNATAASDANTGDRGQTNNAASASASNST
Chain of Glycogen synthase kinase-3 alpha (P49840 whole entry): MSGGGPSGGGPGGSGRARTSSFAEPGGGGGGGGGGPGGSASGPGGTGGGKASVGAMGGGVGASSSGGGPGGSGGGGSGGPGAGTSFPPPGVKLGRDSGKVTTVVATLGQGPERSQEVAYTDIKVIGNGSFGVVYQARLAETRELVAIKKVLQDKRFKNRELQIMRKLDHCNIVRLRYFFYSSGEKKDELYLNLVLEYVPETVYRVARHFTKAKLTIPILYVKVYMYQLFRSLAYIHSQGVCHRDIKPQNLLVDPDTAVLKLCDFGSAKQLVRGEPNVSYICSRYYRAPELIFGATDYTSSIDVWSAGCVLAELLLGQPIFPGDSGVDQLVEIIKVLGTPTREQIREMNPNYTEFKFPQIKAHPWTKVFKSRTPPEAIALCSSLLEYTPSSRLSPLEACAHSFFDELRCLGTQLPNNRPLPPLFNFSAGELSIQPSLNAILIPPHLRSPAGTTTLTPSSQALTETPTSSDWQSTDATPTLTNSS
Chain of Casein kinase I isoform epsilon (P49674 whole entry, canonical isoform): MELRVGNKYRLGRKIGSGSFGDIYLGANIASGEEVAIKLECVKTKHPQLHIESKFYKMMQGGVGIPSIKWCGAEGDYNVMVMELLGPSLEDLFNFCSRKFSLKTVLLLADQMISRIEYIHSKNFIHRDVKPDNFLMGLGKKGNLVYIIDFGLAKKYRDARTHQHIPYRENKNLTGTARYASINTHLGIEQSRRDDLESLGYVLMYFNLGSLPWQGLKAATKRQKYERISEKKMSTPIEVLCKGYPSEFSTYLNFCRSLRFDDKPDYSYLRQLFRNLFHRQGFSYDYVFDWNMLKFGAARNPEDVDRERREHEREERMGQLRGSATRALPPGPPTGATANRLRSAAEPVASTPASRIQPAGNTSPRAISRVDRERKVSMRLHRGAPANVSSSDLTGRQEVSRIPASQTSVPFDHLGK

SMILES	Activity [1]	IC50 [2]	IC50 [3]	solubility [4]	logD at 1 h, 100 µM [5]	Stability [6]	permeability [7]	IC50 [8]	IC50 [9]	IC50 [10]	IC50 [11]
N#Cc1ccc(CSc2nnc(-c3ccncc3)o2)cc1	Non-toxic	7.38 µM	10 µM								
N#Cc1ccc(-c2ccc(CSc3nnc(-c4ccc5c(c4)OCO5)o3)cc2)cc1	Non-toxic			Insoluble	3.58	Stable	impermeable	> 100 µM	30 µM	60 µM	> 100 µM
N#Cc1cccc(CSc2nnc(-c3ccc4c(c3)OCO4)o2)c1	Non-toxic	0.015 µM	0.065 µM								
N#Cc1ccc(CSc2nnc(-c3ccc4c(c3)OCO4)o2)cc1	Non-toxic	0.015 µM	0.13 µM								
N#Cc1cccc(CSc2nnc(-c3ccc4c(c3)OCCO4)o2)c1	Non-toxic	0.095 µM	0.086 µM								
N#Cc1ccc(CSc2nnc(-c3ccc4c(c3)OCCO4)o2)cc1	Non-toxic	0.045 µM	0.166 µM								
COC(=O)c1ccc(CSc2nnc(-c3ccc4c(c3)OCCO4)o2)cc1	Non-toxic							> 100 µM	> 100 µM	> 100 µM	> 100 µM
N#Cc1cccc(CSc2nnc(-c3ccncc3)o2)c1	Non-toxic	3.21 µM	3.16 µM								
c1cc(-c2nnn[nH]2)ccc1CSc1nnc(-c2ccc3c(c2)OCO3)o1	Non-toxic	0.107 µM	0.172 µM								
COC(=O)c1ccc(CSc2nnc(-c3ccc4c(c3)OCO4)o2)cc1	Non-toxic										
O=C(O)c1ccc(CSc2nnc(-c3ccc4c(c3)OCO4)o2)cc1	Non-toxic										
CC(C)CNC(=O)c1ccc(CSc2nnc(-c3ccc4c(c3)OCO4)o2)cc1	Non-toxic										
COC(CNC(=O)c1ccc(CSc2nnc(-c3ccc4c(c3)OCO4)o2)cc1)OC	Non-toxic										
O=C(O)c1ccc(CSc2nnc(-c3ccc4c(c3)OCCO4)o2)cc1	Non-toxic										
CC(C)CNC(=O)c1ccc(CSc2nnc(-c3ccc4c(c3)OCCO4)o2)cc1	Non-toxic										
COC(CNC(=O)c1ccc(CSc2nnc(-c3ccc4c(c3)OCCO4)o2)cc1)OC	Non-toxic										
O=C(NCc1ccccc1)c1ccc(CSc2nnc(-c3ccc4c(c3)OCCO4)o2)cc1	Non-toxic										
c1ccc(-c2ccc(CSc3nnc(-c4ccc5c(c4)OCO5)o3)cc2)cc1	Non-toxic	0.009 µM	0.176 µM					> 100 µM	> 100 µM	> 100 µM	> 100 µM
N#Cc1cc(F)ccc1-c1ccc(CSc2nnc(-c3ccc4c(c3)OCO4)o2)cc1	Non-toxic	0.003 µM	0.022 µM					> 100 µM	30 µM	20 µM	> 100 µM
N#Cc1ccccc1-c1ccc(CSc2nnc(-c3ccc4c(c3)OCO4)o2)cc1	Non-toxic	< 0.005 µM	0.039 µM					> 100 µM	> 100 µM	> 100 µM	> 100 µM
N#Cc1ccccc1-c1ccc(CSc2nnc(-c3ccc4c(c3)OCCO4)o2)cc1	Non-toxic	< 0.005 µM	< 0.005 µM					> 100 µM	> 100 µM	> 100 µM	> 100 µM
N#Cc1cc(F)ccc1-c1ccc(CSc2nnc(-c3ccc4c(c3)OCCO4)o2)cc1	Non-toxic							> 100 µM	5 µM	> 100 µM	> 100 µM
N#Cc1ccccc1-c1ccc(CSc2nnc(-c3ccncc3)o2)cc1	Non-toxic	0.019 µM	0.041 µM					> 100 µM	> 100 µM	> 100 µM	> 100 µM
COC[C@@H]1COc2ccc(-c3nnc(SCc4ccc(-c5ccccc5C#N)cc4)o3)cc2O1	Non-toxic	0.195 µM	0.758 µM					> 100 µM	> 100 µM	> 100 µM	> 100 µM
COC[C@H]1COc2ccc(-c3nnc(SCc4ccc(-c5ccccc5C#N)cc4)o3)cc2O1	Non-toxic	0.015 µM	0.129 µM					> 100 µM	> 100 µM	> 100 µM	> 100 µM
Ic1cccc(CSc2nnc(-c3ccncc3)o2)c1	Non-toxic	0.39 µM									
c1ccc(CSc2nnc(-c3ccncc3)o2)cc1	Non-toxic	2.24 µM	1.32 µM								
COCC1COc2ccc(-c3nnc(SCc4ccc(-c5ccccc5C#N)cc4)o3)cc2O1 (racemic)	Non-toxic	0.054 µM	0.233 µM					> 100 µM	30 µM	> 100 µM	> 100 µM
